Data taken from the supplement of paper PMC10307832.

Columns and labels:
Assay in all cases: relative viability (nuclei count vs DMSO), 5 days (fraction); higher = more cells survive
GSK126 + Phenformin = compound: CC[C@H](C)N1C=C(C2=C(C=C(C=C21)C3=CN=C(C=C3)N4CCNCC4)C(=O)NCC5=C(C=C(NC5=O)C)C)C [GSK126] + N=C(N)NC(=N)NCCc1ccccc1 [Phenformin] (partner 250 µM)
Outline: (§1)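 Lung cancer cell lines were pin-tool dosed in 1536-well plates on the day after seeding, with either a lone drug or a fixed anchor-drug dose plus five library-drug doses (not always all listed) in √10 steps. Nuclei were counted on 4× images after 5 days. Relative viability is the ratio of treated-well to vehicle-well nuclei counts, with each value a median of duplicate plates.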

Carboplatin + Pictilisib = compound: C1CC(C1)(C(=O)O)C(=O)O.[NH2-].[NH2-].[Pt+2] [Carboplatin] + CS(=O)(=O)N1CCN(Cc2cc3nc(-c4cccc5[nH]ncc45)nc(N4CCOCC4)c3s2)CC1 [Pictilisib] (partner 1 µM)
Outline: as §1

GSK126 + Olaparib = compound: CC[C@H](C)N1C=C(C2=C(C=C(C=C21)C3=CN=C(C=C3)N4CCNCC4)C(=O)NCC5=C(C=C(NC5=O)C)C)C [GSK126] + O=C(c1cc(Cc2n[nH]c(=O)c3ccccc23)ccc1F)N1CCN(C(=O)C2CC2)CC1 [Olaparib] (partner 8 µM)
Outline: as §1

MLN4924 + Crizotinib = compound: NS(=O)(=O)OC[C@@H]1C[C@@H](n2ccc3c(N[C@H]4CCc5ccccc54)ncnc32)C[C@@H]1O [MLN4924] + C[C@@H](Oc1cc(-c2cnn(C3CCNCC3)c2)cnc1N)c1c(Cl)ccc(F)c1Cl [Crizotinib] (partner 1 µM)
Outline: as §1

Cell Line	relative viability (GSK126 + Phenformin; first compound 0.08 µM)	relative viability (GSK126 + Phenformin; first compound 0.253 µM)	relative viability (GSK126 + Phenformin; first compound 0.8 µM)	relative viability (GSK126 + Phenformin; first compound 2.53 µM)	relative viability (GSK126 + Phenformin; first compound 8 µM)	relative viability (Carboplatin + Pictilisib; first compound 0.08 µM)	relative viability (Carboplatin + Pictilisib; first compound 0.253 µM)	relative viability (Carboplatin + Pictilisib; first compound 0.8 µM)	relative viability (Carboplatin + Pictilisib; first compound 2.53 µM)	relative viability (Carboplatin + Pictilisib; first compound 8 µM)	relative viability (GSK126 + Olaparib; first compound 0.08 µM)	relative viability (GSK126 + Olaparib; first compound 0.253 µM)	relative viability (GSK126 + Olaparib; first compound 0.8 µM)	relative viability (GSK126 + Olaparib; first compound 2.53 µM)	relative viability (GSK126 + Olaparib; first compound 8 µM)	relative viability (MLN4924 + Crizotinib; first compound 0.04 µM)	relative viability (MLN4924 + Crizotinib; first compound 0.1265 µM)	relative viability (MLN4924 + Crizotinib; first compound 0.4 µM)	relative viability (MLN4924 + Crizotinib; first compound 1.265 µM)	relative viability (MLN4924 + Crizotinib; first compound 4 µM)
LOU-NH91	0.785	0.755	0.692	0.662	0.639	0.551	0.57	0.5	0.525	0.576	0.938	0.942	0.879	0.956	0.887	0.706	0.743	0.652	0.489	0.398
LU99A	1.09	0.881	0.94	0.93	0.855	0.3	0.379	0.323	0.328	0.307	0.245	0.258	0.266	0.243	0.232	0.555	0.359	0.351	0.16	0.151
LXF-289	0.549	0.509	0.477	0.487	0.483	0.889	0.883	0.8	0.832	0.766	1.12	1.11	1.05	1.01	1.02	0.605	0.566	0.508	0.205	0.126
NCI-H23	0.843	0.792	0.738	0.761	0.77	0.477	0.483	0.481	0.472	0.391	0.299	0.361	0.312	0.3	0.263	0.579	0.481	0.301	0.122	0.139
NCI-H322M	0.826	0.787	0.849	0.875	0.817	0.567	0.465	0.507	0.542	0.521	0.818	0.807	0.806	0.829	0.78	0.85	0.779	0.834	0.262	0.399
NCI-H358	0.465	0.306	0.379	0.402	0.299	0.373	0.366	0.321	0.448	0.376	0.705	0.723	0.555	0.613	0.751	0.69	0.506	0.285	0.168	0.156
NCI-H441	0.991	0.727	0.708	0.946	0.826	0.56	0.588	0.414	0.492	0.433	0.612	0.561	0.566	0.539	0.44	0.866	0.693	0.361	0.158	0.169
NCI-H460	0.587	0.531	0.523	0.483	0.468	0.379	0.356	0.352	0.321	0.213	0.434	0.397	0.388	0.326	0.29	0.886	0.929	0.689	0.0391	0.0185
NCI-H520	0.572	0.542	0.561	0.574	0.497	0.357	0.227	0.27	0.297	0.258	0.401	0.347	0.311	0.462	0.37	0.431	0.491	0.338	0.168	0.151
NCI-H596	0.913	0.761	0.751	0.948	0.829	0.455	0.36	0.389	0.333	0.373	0.713	0.703	0.702	0.847	0.758	0.886	1.1	0.501	0.961	0.758
NCI-H647	0.595	0.45	0.448	0.344	0.508	0.572	0.477	0.368	0.482	0.429	0.742	0.438	0.57	0.714	0.56	0.925	0.665	0.197	0.0313	0.0474
NCI-H650	0.431	0.464	0.445	0.437	0.472	0.948	1.03	0.826	0.791	0.562	0.446	0.373	0.363	0.405	0.389	0.676	0.402	0.289	0.135	0.179
NCI-H661	0.277	0.264	0.691	0.269	0.244	0.431	0.393	0.368	0.34	0.402	0.706	0.74	0.722	0.689	0.705	0.735	0.721	0.602	0.462	0.396
NCI-H727	0.469	0.622	0.587	0.624	0.533	0.348	0.512	0.314	0.29	0.352	0.866	0.805	0.68	0.812	0.646	0.672	0.274	0.266	0.274	0.222
NCI-H838	0.652	0.468	0.522	0.487	0.555	0.476	0.391	0.469	0.454	0.485	0.82	0.817	0.738	0.714	0.769	0.635	0.535	0.235	0.154	0.139
